Entries after “also recorded” stand apart in the source; their conditions may differ.
Tests used:
[1] = Human radiation absorbed dose estimates, OLINDA/EXM 1.0, from rat biodistribution
Description: During the development of embodiments of the technology provided herein, the biodistribution of [^18F]4F-MHPG into the organs of rats was assessed. In particular, four time points (Table 3) were collected and used to derive human radiation absorbed dose estimates using the OLINDA/EXM 1.0 software package (see, e.g., Stabin et al. (2005) “OLINDA/EXM; the second-generation personal computer software for internal dose assessment in nuclear medicine”, J Nucl Med. 46: 1023-7). […] These values were entered into the Dynamic Bladder model of OLINDA/EXM, assuming a 4.0-hour void interval. Organs with the highest absorbed dose estimates included the urinary bladder wall (0.666 rad/mCi), […] (0.221 rad/mCi), small intestine (0.201 rad/mCi), and the heart wall (0.201 rad/mCi). An ‘effective dose’ of 0.091 rem/mCi was estimated for [^18F]4F-MHPG. Under United States Federal Regulations governing research with a new radiopharmaceutical (21 CFR § 361.1), the maximum allowable radiation absorbed dose to an individual organ (other than the gonads) is 5 rad. Considering the maximum estimated absorbed dose (urinary bladder wall; 0.666 rad/mCi), initial PET studies in human subjects could use a maximum of 7.5 mCi of [^18F]4F-MHPG. This would correspond to an ‘effective dose’ of 0.68 rem.

adrenal glands = assay: Uptake into adrenal glands, microPET; format: in vivo, rhesus macaque monkey; settings: DMI block of NET
From the text: To assess the ability of [^18F]4F-MHPG to serve an additional clinical role as a marker of adrenergic tumors such as neuroblastoma and pheochromocytoma, data were collected to examine the uptake of [^18F]4F-MHPG into the adrenal gland. In control studies, the adrenal glands took up sufficient [^18F]4F-MHPG to be visualized, especially on the right side of the transaxial images, which was better separated from the kidney than the contralateral adrenal gland. There was also significant uptake in the cortex of the kidney. The kinetics of [^18F]4F-MHPG in the adrenal gland are very similar to those seen in the heart. In the DMI block study above, the adrenal glands were scanned for 10 minutes following the 90 minute cardiac study.

[2] = test system: cardiac sympathetic nerve terminals; assay: MicroPET imaging and myocardial kinetics (compartmental modeling, Patlak graphical analysis) in monkeys; format: in vivo, rhesus macaque monkey
Description: A series of microPET imaging studies were performed in the macaque model to assess image quality and tracer kinetics. In most of these the time course of the metabolic breakdown of [^18F]4F-MHPG in plasma was also determined. The studies are summarized below in Table 1.
During the development of embodiments of the technology provided herein, the kinetics of [^18F]4F-MHPG in monkey hearts was assessed using either compartmental modeling or Patlak graphical analysis to obtain quantitative measures of regional cardiac sympathetic nerve density.
For some analyses, a simplified compartmental model that assumed irreversible trapping inside nerve terminals was used to estimate the model rate constants K1 (ml/min/g), k2 (min^−1), k3 (min^−1), and a blood volume fraction BV (dimensionless) (see, e.g., FIG. 7). In both the control studies and DMI blocking studies, the model quickly converged to a single global minimum in just a few iterations of the nonlinear regression analysis (FIG. 8). […] This aggregate parameter provides a stable measure of cardiac nerve density that declined in a dose-dependent manner with increasing DMI dose (FIG. 9, “Kinetic modeling”).
For some analyses, Patlak graphical analysis was used, which uses a mathematical transformation of the kinetic data Cp(t) and Ct(t) to generate a Tatlak plot′ having a characteristic linear phase (see, e.g., Patlak and Blasberg (1985) “Graphical evaluation of blood-to-brain transfer constants from multiple-time uptake data. Generalizations.” J Cereb Blood Flow 5: 584-90). The slope of the linear portion of a Patlak plot, Kp (ml/min/g), provides an alternate estimate of the ‘net uptake rate constant’ Ki (ml/min/g). Thus, for the model structure used (FIG. 7), the slope of the Patlak plot is given by Kp≈(K1k3)/(k2+k3).
During the development of embodiments of the technology provided herein, the myocardial kinetics of [^18F]4F-MHPG was assessed using Patlak graphical analysis and metabolite-corrected plasma input functions. In this example, the Patlak plot is highly linear (r^2=1.00) and the estimated Patlak slope Kpatlak=0.252 ml/min/g. […] As such, regional estimates of the Patlak slope from Patlak analysis of the kinetics of [^18F]4F-MHPG serve as robust measures of regional cardiac sympathetic nerve density in patients with heart diseases.

[3] = Metabolic breakdown in monkey plasma (reverse-phase HPLC of venous blood samples); format: in vivo, rhesus macaque monkey; settings: rhesus monkeys
Description: In some of the microPET studies, venous blood samples (e.g., n=6) were drawn to assess the metabolic breakdown of [^18F]4F-MHPG in plasma (see Table 1). Plasma was processed for injection onto a reverse-phase HPLC system equipped with a radiation detector. The percentages of intact parent tracer and radiolabeled metabolites were determined as a function of time. In this system, [^18F]4-MHPG has a retention time Rt of approximately 11.2 minutes while the main polar radiometabolite formed has an Rt of approximately 7.9 minutes.

effective dose for a maximum of 7.5 mCi ([1]; initial PET studies in human subjects, 7.5 mCi): 0.68 rem
Effective dose ([1]; reference adult male model): 0.091 rem/mCi
Effective dose, Dose for 10 mCi ([1]; reference adult male model): 0.91 rem
Radiation absorbed dose estimate, Dose for 10 mCi, Adrenals ([1]; reference adult male model): 0.59 rad
Radiation absorbed dose estimate, Dose for 10 mCi, Brain ([1]; reference adult male model): 0.25 rad
Radiation absorbed dose estimate, Dose for 10 mCi, Breasts ([1]; reference adult male model): 0.26 rad
Radiation absorbed dose estimate, Dose for 10 mCi, Gallbladder wall ([1]; reference adult male model): 0.61 rad
Radiation absorbed dose estimate, Dose for 10 mCi, Heart wall ([1]; reference adult male model): 1.09 rad
Radiation absorbed dose estimate, Dose for 10 mCi, Kidneys ([1]; reference adult male model): 0.78 rad
Radiation absorbed dose estimate, Dose for 10 mCi, LLI wall ([1]; reference adult male model): 1.07 rad
Radiation absorbed dose estimate, Dose for 10 mCi, Liver ([1]; reference adult male model): 0.96 rad
Radiation absorbed dose estimate, Dose for 10 mCi, Lungs ([1]; reference adult male model): 0.35 rad
Radiation absorbed dose estimate, Dose for 10 mCi, Muscle ([1]; reference adult male model): 0.37 rad
Radiation absorbed dose estimate, Dose for 10 mCi, Osteogenic cells ([1]; reference adult male model): 0.49 rad
Radiation absorbed dose estimate, Dose for 10 mCi, Ovaries ([1]; reference adult male model): 0.88 rad
Radiation absorbed dose estimate, Dose for 10 mCi, Pancreas ([1]; reference adult male model): 0.63 rad
Radiation absorbed dose estimate, Dose for 10 mCi, Red marrow ([1]; reference adult male model): 0.37 rad
Radiation absorbed dose estimate, Dose for 10 mCi, Skin ([1]; reference adult male model): 0.26 rad
Radiation absorbed dose estimate, Dose for 10 mCi, Small intestine ([1]; reference adult male model): 2.01 rad
Radiation absorbed dose estimate, Dose for 10 mCi, Spleen ([1]; reference adult male model): 0.79 rad
Radiation absorbed dose estimate, Dose for 10 mCi, Stomach wall ([1]; reference adult male model): 0.48 rad
Radiation absorbed dose estimate, Dose for 10 mCi, Testes ([1]; reference adult male model): 0.41 rad
Radiation absorbed dose estimate, Dose for 10 mCi, Thymus ([1]; reference adult male model): 0.33 rad
Radiation absorbed dose estimate, Dose for 10 mCi, Thyroid ([1]; reference adult male model): 0.29 rad
Radiation absorbed dose estimate, Dose for 10 mCi, Total body ([1]; reference adult male model): 0.41 rad
Radiation absorbed dose estimate, Dose for 10 mCi, ULI wall ([1]; reference adult male model): 2.21 rad
Radiation absorbed dose estimate, Dose for 10 mCi, Urinary bladder wall ([1]; reference adult male model): 6.66 rad
Radiation absorbed dose estimate, Dose for 10 mCi, Uterus ([1]; reference adult male model): 1.03 rad
Radiation absorbed dose estimate, Total dose, Adrenals ([1]; reference adult male model): 0.059 rad/mCi
Radiation absorbed dose estimate, Total dose, Brain ([1]; reference adult male model): 0.025 rad/mCi
Radiation absorbed dose estimate, Total dose, Breasts ([1]; reference adult male model): 0.026 rad/mCi
Radiation absorbed dose estimate, Total dose, Gallbladder wall ([1]; reference adult male model): 0.061 rad/mCi
Radiation absorbed dose estimate, Total dose, Heart wall ([1]; reference adult male model): 0.109 rad/mCi
Radiation absorbed dose estimate, Total dose, Kidneys ([1]; reference adult male model): 0.078 rad/mCi
Radiation absorbed dose estimate, Total dose, LLI wall ([1]; reference adult male model): 0.107 rad/mCi
Radiation absorbed dose estimate, Total dose, Liver ([1]; reference adult male model): 0.096 rad/mCi
Radiation absorbed dose estimate, Total dose, Lungs ([1]; reference adult male model): 0.035 rad/mCi
Radiation absorbed dose estimate, Total dose, Muscle ([1]; reference adult male model): 0.037 rad/mCi
Radiation absorbed dose estimate, Total dose, Osteogenic cells ([1]; reference adult male model): 0.049 rad/mCi
Radiation absorbed dose estimate, Total dose, Ovaries ([1]; reference adult male model): 0.088 rad/mCi
Radiation absorbed dose estimate, Total dose, Pancreas ([1]; reference adult male model): 0.063 rad/mCi
Radiation absorbed dose estimate, Total dose, Red marrow ([1]; reference adult male model): 0.037 rad/mCi
Radiation absorbed dose estimate, Total dose, Skin ([1]; reference adult male model): 0.026 rad/mCi
Radiation absorbed dose estimate, Total dose, Small intestine ([1]; reference adult male model): 0.201 rad/mCi
Radiation absorbed dose estimate, Total dose, Spleen ([1]; reference adult male model): 0.079 rad/mCi
Radiation absorbed dose estimate, Total dose, Stomach wall ([1]; reference adult male model): 0.048 rad/mCi
Radiation absorbed dose estimate, Total dose, Testes ([1]; reference adult male model): 0.041 rad/mCi
Radiation absorbed dose estimate, Total dose, Thymus ([1]; reference adult male model): 0.033 rad/mCi
Radiation absorbed dose estimate, Total dose, Thyroid ([1]; reference adult male model): 0.029 rad/mCi
Radiation absorbed dose estimate, Total dose, Total body ([1]; reference adult male model): 0.041 rad/mCi
Radiation absorbed dose estimate, Total dose, ULI wall ([1]; reference adult male model): 0.221 rad/mCi
Radiation absorbed dose estimate, Total dose, Urinary bladder wall ([1]; reference adult male model): 0.666 rad/mCi
Radiation absorbed dose estimate, Total dose, Uterus ([1]; reference adult male model): 0.103 rad/mCi
net uptake rate constant Ki = (K1k3)/(k2+k3) ([2]; compartmental modeling, control studies, monkey heart): 0.341 ± 0.041 mL/min/g
in vivo defluorination ([2]; faint uptake in spinal column bones): little in vivo defluorination
liver uptake compared with [11C]HED or [123I]MIBG ([2]; microPET control studies): much lower
uptake in the lungs and liver ([2]; microPET control studies): very low uptake
metabolism in plasma [3]: rapidly metabolized
Structure (SMILES): N=C(N)NCCc1ccc(F)c(O)c1 [[^18F]4F-MHPG] [4-[^18F]fluoro-meta-hydroxy-phenethylguanidine]
uptake into the adrenal glands under DMI block (adrenal glands): No uptake; also recorded: completely absent
average measured Patlak slope Kp ([2]; control studies, FIG. 11): 0.302 ± 0.031 mL/min/g
estimated Patlak slope Kpatlak ([2]; one control study, rhesus macaque, FIG. 10): 0.252 mL/min/g

— patent US10259781B2, “Imaging agents” (THE REGENTS OF THE UNIVERSITY OF MICHIGAN, priority 2012, dated 2019)
